# “And” between values parts separate entries of the source, which are not always exact repeats. Equal values may be shown once.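 96-well plates; 48 h exposure; 5 concentrations. Endpoints by linear interpolation between flanking doses. Not reached: highest tested concentration assigned. Abbreviation: GI50, concentration required for 50% inhibition of growth.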 The source made the active and inactive calls. No stated cut-off is given here; in the data, active = GI50 up to about 1.1 µM and inactive = higher.
# What was measured:
# Test in all cases: NCI anticancer screen, dose series, 48 h
# [1] = test system: PC-3
# [2] = test system: HCT-15
# [3] = test system: CCRF-CEM
# [4] = test system: RXF 393
# [5] = test system: SR
# [6] = test system: UACC-257
# [7] = test system: NCI-H460
# [8] = test system: IGROV-1
# [9] = test system: SK-MEL-5
# [10] = test system: MOLT-4
# [11] = test system: SK-MEL-28
# [12] = test system: HCC 2998
# [13] = test system: 786-0
# [14] = test system: HOP-92
# [15] = test system: RPMI-8226
# [16] = test system: OVCAR-8
# [17] = test system: SK-OV-3
# [18] = test system: TK-10
# [19] = test system: HOP-62
# [20] = test system: UACC-62
# [21] = test system: OVCAR-3
# [22] = test system: KM12
# [23] = test system: SN12C
# [24] = test system: OVCAR-5
# [25] = test system: K562
# [26] = test system: SNB-19
# [27] = test system: MCF7
# [28] = test system: NCI-H522
# [29] = test system: HT-29
# [30] = test system: NCI-H23
# [31] = test system: MDA-MB-231
# [32] = test system: NCI/ADR-RES
# [33] = test system: U-251
# [34] = test system: EKVX
# [35] = test system: SF-268
# [36] = test system: Hs-578T
# [37] = test system: MDA-MB-435
# [38] = test system: OVCAR-4
# [39] = test system: DU-145
# [40] = test system: ACHN
# [41] = test system: Malme-3M
# [42] = test system: SF-295
# [43] = test system: HCT-116
# [44] = test system: HL-60
# [45] = test system: A549
# [46] = test system: SNB-75
# [47] = test system: SW-620
# [48] = test system: NCI-H226
# [49] = test system: UO-31
# [50] = test system: SK-MEL-2
# [51] = test system: SF-539
# [52] = test system: M14
# [53] = test system: MDA-N
# [54] = test system: T47D
# [55] = test system: COLO 205
# [56] = test system: LOX IMVI
smiles,measurement,setting,value
CC1(C)OCC(C2OC3OC(C)(C)OC3C2c2ccccc2)O1 (configuration not stated),GI50,[1],24.3 µM (inactive)
same,GI50,[2],24.2 µM
same,GI50,[3],30.5 µM (inactive)
same,GI50,[4],48.3 µM (inactive)
same,GI50,[5],28.8 µM (inactive)
same,GI50,[6],36.1 µM (inactive)
same,GI50,[7],39.8 µM (inactive)
same,GI50,[8],41.1 µM (inactive)
same,GI50,[9],17.1 µM (inactive)
same,GI50,[10],22.4 µM (inactive)
same,GI50,[11],41.5 µM (inactive)
same,GI50,[12],> 100 µM (inactive)
same,GI50,[13],58.6 µM (inactive)
same,GI50,[14],17.6 µM (inactive)
same,GI50,[15],48.8 µM (inactive)
same,GI50,[16],43 µM (inactive)
same,GI50,[17],> 100 µM (inactive)
same,GI50,[18],32.1 µM (inactive)
same,GI50,[19],49 µM (inactive)
same,GI50,[20],27 µM (inactive)
same,GI50,[21],34.4 µM (inactive)
same,GI50,[22],82.4 µM (inactive)
same,GI50,[23],26.7 µM (inactive)
same,GI50,[24],91.6 µM (inactive)
same,GI50,[25],30.2 µM (inactive)
same,GI50,[26],71.8 µM (inactive)
same,GI50,[27],50.7 µM (inactive)
same,GI50,[28],37.7 µM (inactive)
same,GI50,[29],39.6 µM (inactive)
same,GI50,[30],22.2 µM (inactive)
same,GI50,[31],55 µM (inactive)
same,GI50,[32],31.1 µM (inactive)
same,GI50,[33],78 µM (inactive)
same,GI50,[34],49 µM (inactive)
same,GI50,[35],38.4 µM (inactive)
same,GI50,[36],20.7 µM (inactive)
same,GI50,[37],37.8 µM (inactive)
same,GI50,[38],41.4 µM (inactive)
same,GI50,[39],45.6 µM (inactive)
same,GI50,[40],51.9 µM (inactive)
same,GI50,[41],42.2 µM (inactive)
same,GI50,[42],> 100 µM (inactive)
same,GI50,[43],36.4 µM (inactive)
same,GI50,[44],18.3 µM (inactive)
same,GI50,[45],42.8 µM (inactive)
same,GI50,[46],50.6 µM (inactive)
same,GI50,[47],32.8 µM (inactive)
same,GI50,[48],22.4 µM (inactive)
same,GI50,[49],44.8 µM (inactive)
same,GI50,[50],22.1 µM (inactive)
same,GI50,[51],37.5 µM (inactive)
same,GI50,[52],33.7 µM (inactive)
same,GI50,[53],37 µM (inactive)
same,GI50,[54],38.2 µM (inactive)
same,GI50,[55],21.2 µM (inactive)
same,GI50,[56],32.1 µM (inactive)
COC12C=CC(CC1)C(C)(C)C2O (configuration not stated),GI50,[46],87.5 µM (inactive) and 52.7 µM (inactive)

# Reference: ChEMBL document CHEMBL1201862, “PubChem BioAssay data set” (2004)
